Experimental data reported in patent US20250197428A1, “INHIBITORS OF KIF18A AND USES THEREOF” (ACCENT THERAPEUTICS, INC., priority 2022, published 2025).
Where two headings read alike, the source gives them in different places.

Columns and labels:
KIF18A = KIF18A (Homo sapiens (Human), UniProt Q8NI77); experiment: KIF18A Biochemical Assay (ATPase, ADP-Glo)
OVCAR-3 cells = experiment: In vitro anti-proliferative activity assay in cancer cell line OVCAR-3 (CellTiter-Glo, 4- or 7-day); assay type: cell-based; conditions: Homo sapiens, read-out: OVCAR-3 cellular antiproliferation assay IC50

Chain of KIF18A (Q8NI77 1-367): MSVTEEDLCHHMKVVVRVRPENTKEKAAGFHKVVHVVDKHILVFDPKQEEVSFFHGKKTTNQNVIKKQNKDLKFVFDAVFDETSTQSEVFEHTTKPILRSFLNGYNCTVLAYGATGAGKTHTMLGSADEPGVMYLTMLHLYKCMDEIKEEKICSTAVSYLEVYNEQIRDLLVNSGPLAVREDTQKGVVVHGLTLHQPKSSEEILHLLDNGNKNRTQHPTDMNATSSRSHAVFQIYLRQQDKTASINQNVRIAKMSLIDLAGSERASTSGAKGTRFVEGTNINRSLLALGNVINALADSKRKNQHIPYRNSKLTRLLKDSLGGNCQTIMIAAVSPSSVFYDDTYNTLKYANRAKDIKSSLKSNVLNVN
Chain of KIF18A (P02550 whole entry partner): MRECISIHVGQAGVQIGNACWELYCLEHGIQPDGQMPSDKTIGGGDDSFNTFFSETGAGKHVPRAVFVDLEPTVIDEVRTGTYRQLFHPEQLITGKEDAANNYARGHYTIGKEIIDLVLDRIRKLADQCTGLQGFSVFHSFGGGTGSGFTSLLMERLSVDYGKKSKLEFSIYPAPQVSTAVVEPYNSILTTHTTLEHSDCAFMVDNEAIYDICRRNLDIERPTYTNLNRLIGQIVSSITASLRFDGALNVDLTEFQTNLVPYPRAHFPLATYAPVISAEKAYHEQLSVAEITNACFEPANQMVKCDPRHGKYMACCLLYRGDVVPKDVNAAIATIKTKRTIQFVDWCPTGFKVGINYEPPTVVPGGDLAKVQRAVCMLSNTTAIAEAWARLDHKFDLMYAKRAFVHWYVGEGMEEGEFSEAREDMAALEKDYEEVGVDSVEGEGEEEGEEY
Chain of KIF18A (P02554 whole entry partner): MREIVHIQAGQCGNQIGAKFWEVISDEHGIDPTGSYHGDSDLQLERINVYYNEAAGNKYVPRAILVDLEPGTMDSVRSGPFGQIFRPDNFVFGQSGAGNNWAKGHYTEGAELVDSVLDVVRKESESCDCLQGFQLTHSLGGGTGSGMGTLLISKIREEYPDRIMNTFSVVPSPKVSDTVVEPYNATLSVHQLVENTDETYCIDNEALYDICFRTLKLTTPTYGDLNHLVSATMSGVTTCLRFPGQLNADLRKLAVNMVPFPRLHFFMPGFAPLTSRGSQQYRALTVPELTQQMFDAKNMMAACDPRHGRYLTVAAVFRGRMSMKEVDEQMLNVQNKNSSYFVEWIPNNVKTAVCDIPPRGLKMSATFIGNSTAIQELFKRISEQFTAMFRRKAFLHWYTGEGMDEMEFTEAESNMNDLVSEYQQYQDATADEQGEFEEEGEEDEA

Structure (SMILES)	IC50 (KIF18A) [nM]	IC50 (OVCAR-3 cells; OVCAR-3, 96 h, 4-day assay) [nM]	IC50 (OVCAR-3 cells; OVCAR-3, 168 h, 7-day assay) [nM]
Cc1cc(NC(=O)c2ccc(NS(=O)(=O)CCO)cc2N2CC[C@@]3(C(F)F)C[C@H]3C2)nc(OC[C@H](O)C(F)(F)F)n1 [Example 68]	> 1000	–	> 1000
CC[Si]1(CC)CCN(c2ncccc2C(=O)Nc2cccc(S(=O)(=O)N3CCC(F)(F)CC3)c2)CC1 [Example 92]	–	–	> 1000
C[Si]1(C)CCN(c2cc(NS(=O)(=O)CCO)cc(F)c2C(=O)Nc2cccc(OC[C@H](O)C(F)(F)F)n2)CC1 [Example 124]	< 100	–	100 to 500
Cc1cc(NC(=O)c2ncc(NS(=O)(=O)CCO)nc2N2CC[Si](C)(C)CC2)nc(N2CCC(F)(F)CC2)n1 [Example 105]	> 1000	–	> 1000
C[Si]1(C)CCN(c2cc(NS(=O)(=O)CCO)ccc2NC(=O)c2ccnc(N3CCC(F)(F)CC3)n2)CC1 [Example 23]	100 to 500	100 to 500	–
CC1CN(c2cccc(NC(=O)c3ccc(S(=O)(=O)NCCO)cc3N3CC[Si](C)(C)CC3)n2)CCO1 (stereo not drawn) [Example 18]	< 100	< 100	–
Cc1cc(NC(=O)c2ccc(NS(=O)(=O)CCO)cc2N2CC[C@@]3(C)C[C@H]3C2)nc(N2CCC(F)(F)CC2)n1 [Example 63]	–	–	< 100
C[C@@]12CCN(c3ncccc3C(=O)Nc3cccc(S(=O)(=O)N4CCC(F)(F)CC4)c3)C[C@@H]1C2 [Example 47]	> 1000	–	–
O=C(Nc1cccc(S(=O)(=O)N2CCC(F)(F)CC2)c1)c1cccnc1N1CCC2CC2C1 (stereo not drawn) [Example 44]	> 1000	–	–
Cc1cc(NC(=O)c2ccc(NS(=O)(=O)CCO)cc2N2CC[C@]3(C)C[C@@H]3C2)nc(N2CCC(F)(F)CC2)n1 [Example 62]	–	–	< 100
Cc1cc(NC(=O)c2c(F)cc(NS(=O)(=O)CCO)cc2N2CC[C@@]3(C)C[C@H]3C2)nc(N2CCC(F)(F)CC2)n1 (single isomer, unassigned) [Example 31b]	–	–	100 to 500
O=C(Nc1ccnc(N2CCC(F)(F)CC2)n1)c1ccc2c(cnn2CCO)c1N1CCC2(CC1)CC2 [Example 25]	> 1000	–	–
Cc1cc(NC(=O)c2c(F)cc(NS(=O)(=O)CCO)cc2N2CC[C@]3(C)C[C@@H]3C2)nc(N2CCC(F)(F)CC2)n1 (single isomer, unassigned) [Example 31a]	–	–	100 to 500
C[C@H]1CN(c2nccc(C(=O)Nc3ccc(NS(=O)(=O)CCO)cc3N3CC[Si](C)(C)CC3)n2)CCO1 [Example 91]	–	–	100 to 500
C[Si]1(C)CCN(c2cc(NS(=O)(=O)CCO)c(F)cc2NC(=O)c2cccc(N3CCC(F)(F)CC3)n2)CC1 [Example 95]	–	< 100	–
CC(C)(C)NS(=O)(=O)c1cccc(NC(=O)c2ccc(S(=O)(=O)C3(C)COC3)cc2N2CC[Si](C)(C)CC2)c1 [Example 24]	–	100 to 500	–
CC12CCN(c3ncccc3C(=O)Nc3cccc(S(=O)(=O)N4CCC(F)(F)CC4)c3)CC1C2 (stereo not drawn) [Example 45]	–	> 1000	–
C[C@]12CCN(c3ncccc3C(=O)Nc3cccc(S(=O)(=O)N4CCC(F)(F)CC4)c3)C[C@H]1C2 [Example 46]	–	> 1000	–
C[Si]1(C)CCN(c2ncccc2C(=O)Nc2cccc(S(=O)(=O)N3CCC(F)(F)CC3)c2)C1 [Example 93]	–	–	> 1000
C[Si]1(C)CCN(c2cc(NS(=O)(=O)CCO)ccc2C(=O)Nc2ccnc(S(=O)(=O)C3CCCC3)n2)CC1 [Example 89]	–	–	100 to 500

The next lines start with results.

IC50 (KIF18A) [nM]	IC50 (OVCAR-3 cells; OVCAR-3, 96 h, 4-day assay) [nM]	Structure (SMILES)	IC50 (OVCAR-3 cells; OVCAR-3, 168 h, 7-day assay) [nM]
< 100	–	Cc1cc(NC(=O)c2ccc(NS(=O)(=O)CCO)cc2N2CC[C@]3(F)CC[C@@H]3C2)nc(N2CCC(F)(F)CC2)n1 (single isomer, unassigned) [Example 50a]	100 to 500
< 100	100 to 500	Cc1cc(NC(=O)c2ccc(NS(C)(=O)=O)cc2N2CC[C@]3(C)C[C@@H]3C2)nc(N2CCC(F)(F)CC2)n1 [Example 33]	–
> 1000	> 1000	Cc1cc(NC(=O)c2ccc(NS(=O)(=O)CCO)cc2N2CC[C@]3(CO)C[C@@H]3C2)nc(N2CCC(F)(F)CC2)n1 [Example 40]	–
< 100	> 1000	Cc1cc(NC(=O)c2ccc(NS(C)(=O)=O)cc2N2CC[C@@]3(C)C[C@H]3C2)nc(N2CCC(F)(F)CC2)n1 [Example 32]	–
